Consider four molecules from patent US20200001104A1, “SCALABLE MAGNETOMECHANICAL SCHEMES AND DEVICES FOR REMOTE CONTROL OF MECHANOSENSITIVE CELLS” (Massachusetts Institute of Technology, priority 2018, published 2020).

The subject of the experiment is dorsal root ganglion (DRG) explant cultures. Nature of the experiment: Magnetomechanical stimulation in the presence of channel blockers, calcium imaging. It is filed as cell-based, rat.
Where [1] appears, read: cells incubated with blocker, all doses, one-way ANOVA, n=6.
Where [2] appears, read: blocker at 100 μM, MNDs plus MF.

“Also recorded” adds a separate entry of the source. Read-outs that look alike come from different tables or passages of the source.

Turning to `CCCCCC/C=C\CCCCCCCC(=O)O` [PA, palmitoleic acid], the “Ca2+ response to magnetomechanical stimulation” value (blocker at 30-300 μM, MNDs plus MF) is given as “failed to block; also recorded: do not affect”. In addition, under setting [1], the “number of responders to magnetomechanical stimulation” value (“number of responders” below) is reported as “No significant difference”.

On to ruthenium red [RuR], for which the “Ca2+ response (ΔF/F0) to magnetomechanical stimulation” value (blocker at 10 μM, MNDs plus MF) was “larger ΔF/F0 changes; also recorded: increases”. The “Ca2+ response to magnetomechanical stimulation” value under setting [2] was “returns to baseline levels”. The “number of responders” value under setting [1] is recorded as “No significant difference”.

Regarding `[Cl][Gd]([Cl])[Cl]` [Gd^3+, Gadolinium(III) (Gd^3+) chloride], the “Ca2+ response to magnetomechanical stimulation” value is on record as “enhanced response; also recorded: increases Ca^2+ influx” under setting [2] and “reduced response; also recorded: nearly eliminates Ca^2+ activity” (blocker at 1000 μM (1 mM), MNDs plus MF). The “fraction of cells responding to magnetomechanical stimulation” value (blocker at 1 mM, one-way ANOVA and Tukey's HSD, n=6) is listed as “significantly lower fraction”.

Turning to `NC1=N[C@H](O)[C@H]2[C@H]3O[C@]4(O)O[C@@H]([C@@H](O)[C@@]2(N1)[C@@H]4O)[C@]3(O)CO` [TTX, tetrodotoxin], the “Ca2+ response to magnetomechanical stimulation” value is “failed to block; also recorded: do not affect” and the “number of responders” value was “No significant difference”.
